Test results published in PubChem BioAssay (NCI).
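Grown in 96-well plates, cells were treated for 48 hours with each compound at five concentrations. Insufficient inhibition: endpoint recorded as highest concentration tested. GI50 is the concentration that inhibits growth by half. TGI marks complete inhibition of growth.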

What was measured:
Assay in all cases: NCI tumour cell line growth inhibition, 48 h
[1] = tested on: OVCAR-8 ovarian
[2] = tested on: MOLT-4 leukemia
[3] = tested on: UO-31 renal
[4] = tested on: HCT-15 colon
[5] = tested on: SK-MEL-2 melanoma
[6] = tested on: SF-268 CNS
[7] = tested on: A549 NSCLC
[8] = tested on: SNB-19 CNS
[9] = tested on: SNB-75 CNS
[10] = tested on: U251 CNS
[11] = tested on: HS 578T breast
[12] = tested on: HCT-116 colon
[13] = tested on: HOP-62 NSCLC
[14] = tested on: OVCAR-5 ovarian
[15] = tested on: IGROV1 ovarian
[16] = tested on: NCI-H522 lung
[17] = tested on: CCRF-CEM leukemia
[18] = tested on: SF-295 CNS
[19] = tested on: NCI-H226 lung
[20] = tested on: DU-145 prostate
[21] = tested on: SF-539 CNS
[22] = tested on: NCI-H460 lung
[23] = tested on: MDA-MB-231 breast
[24] = tested on: ACHN renal
[25] = tested on: MCF7 breast
[26] = tested on: BT-549 breast
[27] = tested on: COLO 205 colon
[28] = tested on: CAKI-1 renal
[29] = tested on: UACC-62 melanoma
[30] = tested on: KM12 colon
[31] = tested on: OVCAR-3 ovarian
[32] = tested on: A498 renal
[33] = tested on: SK-MEL-5 melanoma
[34] = tested on: UACC-257 melanoma
[35] = tested on: M14 melanoma
[36] = tested on: MDA-MB-435
[37] = tested on: LOX IMVI melanoma
[38] = tested on: MALME-3M melanoma
[39] = tested on: HT29 colon
[40] = tested on: SK-MEL-28 melanoma
[41] = tested on: SK-OV-3 ovarian
[42] = tested on: SW-620 colon
[43] = tested on: NCI/ADR-RES ovarian
[44] = tested on: K-562 leukemia
[45] = tested on: SN12C renal
[46] = tested on: OVCAR-4 ovarian
[47] = tested on: 786-0 renal
[48] = tested on: RPMI-8226 leukemia
[49] = tested on: NCI-H23 lung
[50] = tested on: TK-10 renal
[51] = tested on: HOP-92 NSCLC
[52] = tested on: SR leukemia
[53] = tested on: HL-60(TB) leukemia
[54] = tested on: T-47D breast
[55] = tested on: RXF 393 renal
[56] = tested on: PC-3 prostate
[57] = tested on: HCC-2998 colon

CN(C)c1ccc2nc3ccc(=O)cc-3sc2c1
GI50 [1]: 0.651 µM | TGI [1]: > 100 µM | GI50 [2]: 1.4 µM | TGI [2]: 26 µM | GI50 [3]: 0.545 µM | TGI [3]: > 74.5 µM | GI50 [4]: 0.322 µM | TGI [4]: > 86 µM | GI50 [5]: 3.51 µM | TGI [5]: 25.8 µM | GI50 [6]: 5.16 µM | TGI [6]: > 100 µM | GI50 [7]: 0.312 µM | TGI [7]: 3.02 µM | GI50 [8]: 2.63 µM | TGI [8]: > 100 µM | GI50 [9]: 11.7 µM | TGI [9]: > 100 µM | GI50 [10]: 0.72 µM | TGI [10]: 32.2 µM | GI50 [11]: 7.12 µM | TGI [11]: > 100 µM | GI50 [12]: 1.16 µM | TGI [12]: 8.47 µM | GI50 [13]: 0.763 µM | TGI [13]: > 56.9 µM | GI50 [14]: 4.68 µM | TGI [14]: > 70.2 µM | GI50 [15]: 2.48 µM | TGI [15]: > 54.5 µM | GI50 [16]: 0.835 µM | TGI [16]: 7.85 µM | GI50 [17]: 0.694 µM | TGI [17]: 58.1 µM | GI50 [18]: 1.52 µM | TGI [18]: 10.9 µM | GI50 [19]: 7.59 µM | TGI [19]: > 85.1 µM | GI50 [20]: 1.8 µM | TGI [20]: 6.17 µM | GI50 [21]: 0.287 µM | GI50 [22]: 1.55 µM | TGI [22]: 15.7 µM | GI50 [23]: 1.14 µM | TGI [23]: > 45.4 µM | GI50 [24]: 0.274 µM | TGI [24]: > 49.1 µM | GI50 [25]: 0.445 µM | TGI [25]: 5.75 µM | GI50 [26]: 0.712 µM | TGI [26]: > 100 µM | GI50 [27]: 0.38 µM | TGI [27]: 3.81 µM | GI50 [28]: 2.24 µM | TGI [28]: > 90.7 µM | GI50 [29]: 1.32 µM | TGI [29]: 8.69 µM | GI50 [30]: 0.781 µM | TGI [30]: > 78.7 µM | GI50 [31]: 0.598 µM | TGI [31]: > 28.1 µM | GI50 [32]: 11 µM | TGI [32]: > 92.8 µM | GI50 [33]: 0.173 µM | TGI [33]: 0.495 µM | GI50 [34]: 0.38 µM | TGI [34]: 3.29 µM | GI50 [35]: 0.408 µM | TGI [35]: 10.8 µM | GI50 [36]: 0.31 µM | TGI [36]: 0.985 µM | GI50 [37]: 0.633 µM | TGI [37]: > 63.8 µM | GI50 [38]: 0.333 µM | TGI [38]: 4.18 µM | GI50 [39]: 4.26 µM | TGI [39]: 37.1 µM | GI50 [40]: 4.6 µM | TGI [40]: 27.1 µM | GI50 [41]: 6.02 µM | TGI [41]: > 100 µM | GI50 [42]: 1.36 µM | TGI [42]: > 100 µM | GI50 [43]: 0.665 µM | TGI [43]: > 100 µM | GI50 [44]: 0.919 µM | TGI [44]: > 100 µM | GI50 [45]: 0.865 µM | TGI [45]: > 79 µM | GI50 [46]: 1.41 µM | TGI [46]: 36.5 µM | GI50 [47]: 2.06 µM | TGI [47]: > 100 µM | GI50 [48]: 0.199 µM | TGI [48]: 53 µM | GI50 [49]: 0.82 µM | TGI [49]: > 100 µM | GI50 [50]: 13.8 µM | TGI [50]: > 77.7 µM | GI50 [51]: 1.46 µM | TGI [51]: 29.5 µM | GI50 [52]: 0.884 µM | TGI [52]: > 46.5 µM | GI50 [53]: 0.77 µM | TGI [53]: 3.94 µM | GI50 [54]: 1 µM | TGI [54]: > 100 µM | GI50 [55]: 2.92 µM | TGI [55]: 36.9 µM | GI50 [56]: 0.0726 µM | TGI [56]: > 100 µM | GI50 [57]: 0.697 µM | TGI [57]: > 100 µM
